Data on two compounds can be found in patent publication US11780826B2 (Amgen Inc., priority 2017, dated 2023).

Test [1] deals with Bovine cardiac myofibrils. As to the kind of experiment: In vitro model of dose-dependent myofibril ATPase modulation (AC1.4, pyruvate kinase/lactate dehydrogenase-coupled ATPase assay at pCa25). The class given is biochemical. To be noted: concentration at which ATPase activity was 1.4-fold higher than the bottom of the dose curve, mean of a minimum of two independent tests. Put shortly: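 ATP turnover tracked as NADH absorbance loss at 340 nm, coupled via pyruvate kinase/lactate dehydrogenase, with 1 mM ATP, 2 mM MgCl2 and 12 mM K-PIPES at pH 6.80 (22° C) under EGTA/CaCl2 calcium buffering. Substrate was detergent-treated bovine cardiac myofibrils; 4-parameter curve fit, AC1.4 averaged over at least two runs.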

The test system of the next test is Male CD rats. As to the kind of experiment: Echocardiography/ultrasound protocol: fractional shortening (% FS) during intravenous infusion, MEE. Type of test: in vivo. On the set-up: unit not given here. Conditions: Echocardiography, exposure at 10% increase in % FS from baseline, rat, formulation 40% HPbCD, corrected for rat plasma protein binding. The method, then:
Formulations: A compound as disclosed herein and water were admixed together. Either 30% wt/vol or 40% wt/vol of hydroxypropyl beta-cyclodextrin (HPBCD) was added and the mixture stirred until dissolved.
Echocardiography/ultrasound protocol: Serial echocardiography was conducted with the aid of an imaging system suitable for rodent cardiac ultrasound. Male CD rats (6-10 weeks of age; 6-12 animals per group) were cannulated with a jugular vein catheter to enable delivery of test article by intravenous infusion. […] An imaging probe was fixed in position to acquire short axis (SAX), motion (M)—mode images of the left cardiac ventricle at the level of the papillary muscles. Baseline data was acquired prior to initiating test article delivery. Test article (compound as disclosed herein in a HPBCD formulation), or vehicle control, was delivered with the aid of an infusion pump connected to the jugular vein catheter. Infusion rate of test article was increased at 15 min intervals, to a maximum of 5 mL/kg/hr. Ultrasound images were acquired at 5 min intervals. Additionally whole blood (not exceeding 10 uL) was collected via a tail nick at the same 5 min intervals for subsequent exposure determination.
Whole blood samples were analyzed by protein precipitation and liquid chromatography tandem mass spectrometry (LC-MS/MS) using multiple reaction monitoring (MRM) in positive ionization mode. The lower limit of quantitation (LLOQ) in the assay was 1 ng/mL and the upper limit of quantitation (ULOQ) was 10,000 ng/mL.
Offline data analysis of the SAX M-mode ultrasound images was conducted to derive measures of left ventricular end diastolic diameter (LVEDD), left ventricular end systolic diameter (LVESD) and subsequent calculation of fractional shortening (% FS) using the following formula: % FS=((LVEDD−LVESD)/LVEDD)*100. Minimally efficacious exposure (MEE) was defined as the exposure at which a 10% increase in % FS from baseline was observed. The MEE was derived by plotting assayed exposures against % FS and using non-linear curve fitting (log(exposure) vs. % FS; variable slope, 4 parameters). Response to vehicle at each time point was averaged and all test article responses were normalized to baseline and subtracted from time matched (averaged) vehicle responses.

Consider `CS(=O)(=O)c1cc(C(=O)N2[C@@H](C(=O)N[C@@H](c3cc(F)c(C(F)(F)F)cc3F)C3CC3)C[C@H]3C[C@H]32)ccn1` [Example 279, (1R,3R,5R)—N—((R)-cyclopropyl(2,5-difluoro-4-(trifluoromethyl)phenyl)methyl)-2-(2-(methylsulfonyl)isonicotinoyl)-2-azabicyclo[3.1.0]hexane-3-carboxamide], for which the AC1.4 in test [1] was determined as 0.7092 µM. Also, the “MEE* (unbound), minimally efficacious exposure” value in the test with Male CD rats was found to be 0.68.
On the same counts, the results for `CS(=O)(=O)c1cc(C(=O)N2[C@@H](C(=O)N[C@@H](c3cc(F)c(Cl)cc3F)C3CC3)C[C@H]3C[C@H]32)ccn1` [Example 314, (1R,3R,5R)—N—((R)-(4-chloro-2,5-difluorophenyl)(cyclopropyl)methyl)-2-(2-(methylsulfonyl)isonicotinoyl)-2-azabicyclo[3.1.0]hexane-3-carboxamide] are 0.846 µM and 0.16.
